Legend:
CT43 cells = test: Toxicity assay by cell count (Hoechst 33258); assay type: cell-based, Chinese hamster; settings: 24 h
Method: To measure toxicity, we treated CT60 and CT43 cells with compounds at 5, 10 and 20 μM for 24 h. The cell number per well was compared to control cells treated with DMSO (FIG. 7). […] Compound 1-a-14 did cause a 50% reduction in cell number at 10 μM for CT60 and an 80% reduction for CT43 cells. Compounds 1-a-4, 5, 6, 8 and 13 were partially toxic as indicated by 20-30% reduction in cell number after 24 h at 10 μM. Procedure Using Cell Count Assay: Compounds were added to CT60 and CT43 cells plated in 384 well plates at 0 (DMSO solvent control), 5, 10 and 20 μM concentrations in quadruplicate using methods similar to the dose dependence assay, except that the cells were stained with Hoechst 33258 nuclear stain. The final DMSO concentration in each well was 0.2%. For the control cells an equivalent amount of DMSO was added to the cells. The cells were incubated for 24, 48 and 72 h. After each time period, cells were washed and then fixed with 1.5% PFA. After washing the cells three times with PBS, the nuclei of the cells were stained using 5 μg/ml Hoechst 33258 (25 mg/ml stock solution in DMSO) in PBS for 45 m at room temperature. Finally, cells were washed three times with PBS, and images were obtained using a Nikon 4× Plan Apo 0.2NA objective. For Hoechst imaging we used the same filter set as for filipin. We collected one 520×696 pixel image per well at 12 intensity bits per pixel. Each pixel is 3.125 by 3.125 μm in […] the object. Cells were counted by defining the standard area of single nuclei (˜200 μm^2) interactively for each plate using the Integrated Morphometry Analysis function of MetaMorph. The number of standard areas per object above a threshold was determined, and the total number of standard areas per image was used as the cell count. The percent reduction in the number of cells compared to DMSO control was calculated for each concentration and time.

25RA CHO cells = test: 3H cholesterol efflux assay on 25RA CHO cells; assay type: cell-based, Chinese hamster; settings: 10 μM, overnight chase
Method: 25RA CHO cells were incubated with 10 μM concentrations of compound 2-a-1, 2-a-3,2-a-8, 2-a-9, and 2-a-13. Cells were loaded with ^3H cholesterol and then chased overnight in the presence or absence of the various compounds. The media over the cells were removed, and radioactivity released from the cells was measured. The cells were then solubilized, and radioactivity remaining in the cells was measured. […] The 25-RA cells do have a defect in SCAP, which alters cholesterol homeostasis, including increased synthesis of cholesterol.

`CCOc1cccc2cc(-c3csc(Nc4cccc(C(F)(F)F)c4)n3)c(=O)oc12` [Compound 1-a-14] was tested, and the “reduction in cell number” value (CT43 cells; 10 μM) was 80%.

With `CCN(CC)c1ccc(C=C2SC(=S)N(c3ccc(OC)cc3)C2=O)cc1` [Compound 2-a-3] the efflux of cholesterol (25RA CHO cells) was “promote efflux of cholesterol”.

`COc1ccccc1Nc1nc(Nc2ccccc2OC)nc(Nc2ccccc2OC)n1` [Compound 2-a-9] was tested, and the efflux of cholesterol (25RA CHO cells) was “promote efflux of cholesterol”.

In the case of `FC(F)(F)COc1nc(NN=Cc2cccc(I)c2)nc(N(c2ccccc2)c2ccccc2)n1` [Compound 2-a-12], the “reduction in the number of cells” value (CT43 cells; 20 μM) is reported as 75%.

`O=[N+]([O-])c1cccc(C=NNc2nc(Nc3cccc4ccccc34)nc(N(c3ccccc3)c3ccccc3)n2)c1` [Compound 2-a-13] was tested, and the efflux of cholesterol (25RA CHO cells) was “promote efflux of cholesterol”.

Reference: patent publication US20090012148A1, “REDUCING CELLULAR CHOLESTEROL LEVELS AND/OR TREATING OR PREVENTING PHOSPHOLIPIDOSIS” (priority 2005, published 2009)
